Assays:
[1] = target: T1, SARS-CoV-2 3CL^pro (Severe acute respiratory syndrome coronavirus 2, UniProt P0DTD1); assay: SARS-CoV-2 3CLpro FRET activity assay (Beyotime inhibitor screening kit); type: biochemical; settings: for IC50: FRET assay, averages of three independent experiments; for inhibition at 1 µM: n = 3, read-out: rate of inhibiting SARS-CoV-2 3CL^pro
T1 construct: purchased Beyotime, China P0315M

[2] = test system: SARS-CoV-2 Omicron virus BA.5; assay: microbe, parasite or virus in culture; type: cell-based; settings: for EC50: Severe acute respiratory syndrome coronavirus 2, Vero C1008, 96 h, ND = not detectable, inactive at 10 μM, mean ± SD, read-out: EC50, therapeutic model
[3] = test system: SARS-CoV-2 Omicron virus BA.5; assay: Antiviral activity in Vero E6 cells, preventive model (viral RNA by qRT-PCR); type: cell-based; settings: Severe acute respiratory syndrome coronavirus 2, Vero C1008; read-out: EC50 (concentration for 50% reduction in viral infectivity), preventive model
[4] = in vitro; settings: African green monkey
[5] = in vitro; settings: African green monkey; remark: listed apart in the source
[6] = test system: rats and mice; design: method as in PMID 12776572; settings: cited from earlier work
[7] = test system: SARS-CoV-2; design: method as in PMID 34131140; settings: read-out: intracellular antiviral activity EC50; cited from earlier work
[8] = test system: rats and mice; design: method as in earlier work; settings: cited from earlier work
[9] = test system: rats and mice; settings: cited from earlier work
[10] = Normal cytotoxicity test in Vero E6 cells, therapeutic model (Celltiter-Glo, CC plate); settings: African green monkey, Vero E6 cells (uninfected)
[11] = Cytotoxicity against Vero E6 cells, CCK-8 assay (preventive model); settings: African green monkey

With `COC(=O)CCCOc1cc(O)c2c(=O)c(O)c(-c3cc(O)c(O)c(O)c3)oc2c1` [Compound 4, Methyl4-((3,5-dihydroxy-4-oxo-2–(3,4,5-trihydroxyphenyl)-4H-chromen-7-yl)oxy)butano-ate] the IC50 [1] was 1260 ± 90 nM.
Compound `CCOC(=O)CCCCCCCOc1cc(O)c2c(=O)c(O)c(-c3cc(O)c(O)c(O)c3)oc2c1` [Compound 10, Ethyl 8-((3,5-dihydroxy-4-oxo-2–(3,4,5-trihydroxyphenyl)-4H-chromen-7-yl)oxy)octan-oate] has an EC50 [2] of 11.5 ± 3.68 µM, an EC50 [3] of 46.1 ± 4.67 µM and an IC50 [1] of 2360 ± 130 nM.
Compound `COC(=O)CCCCCOc1cc(O)c2c(=O)c(O)c(-c3cc(O)c(O)c(O)c3)oc2c1` [Compound 5, Methyl 6-((3,5-dihydroxy-4-oxo-2–(3,4,5-trihydroxyphenyl)-4H-chromen-7-yl)oxy) hexano-ate] has a CC50 [4] of over 100 µM, an EC50 [3] of 37.6 ± 2.05 µM and an IC50 [1] of 1690 ± 160 nM. It also gave a CC50 [5] of over 100 µM.
In the case of `O=C1c2c(O)cc(O)cc2O[C@H](c2cc(O)c(O)c(O)c2)[C@H]1O` [Compound 1, Dihydromyricetin], the “result in long-term toxicity tests” value [6] is listed as “negative”, the EC50 [7] is listed as 13.6 µM and the “result in genotoxicity tests” value [8] is listed as “negative”. The “inhibitory activity against Omicron virus, therapeutic model” value [2] was “did not have significant inhibitory activity”, the “result in acute oral toxicity tests” value [9] was “negative” and the CC50 at 4 days [10] was over 100 µM. It also gave an EC50 [3] of 21.2 ± 0.62 µM and a CC50 at 24 h [11] of over 100 µM.
In the case of `O=c1c(O)c(-c2cc(O)c(O)c(O)c2)oc2cc(O)cc(O)c12` [Compound 2, Myricetin], the “inhibitory activity against Omicron virus, therapeutic model” value [2] is reported as “did not have significant inhibitory activity”, the CC50 at 4 days [10] is reported as over 100 µM and the EC50 [3] is reported as 12.2 ± 0.23 µM. It also gave a CC50 at 24 h [11] of over 100 µM.
`COC(=O)COc1cc(O)c2c(=O)c(O)c(-c3cc(O)c(O)c(O)c3)oc2c1` [Compound 3, Methyl 2-((3,5-dihydroxy-4-oxo-2–(3,4,5-trihydroxyphenyl)-4H-chromen-7yl)oxy)acetate] showed a CC50 [4] of over 100 µM, an EC50 [3] of 15.8 ± 0.92 µM and an IC50 [1] of 720 ± 40 nM. For the same compound, the inhibition at 1 µM [1] was over 50% and the CC50 [5] was over 100 µM.
For `CCOC(=O)CCCOc1cc(O)c2c(=O)c(O)c(-c3cc(O)c(O)c(O)c3)oc2c1` [Compound 7, Ethyl 4-((3,5-dihydroxy-4-oxo-2–(3,4,5-trihydroxyphenyl)-4H-chromen-7-yl)oxy)butano-ate], the IC50 [1] was 1530 ± 140 nM.
For `CCOC(=O)CCCCCCOc1cc(O)c2c(=O)c(O)c(-c3cc(O)c(O)c(O)c3)oc2c1` [Compound 9, Ethyl 7-((3,5-dihydroxy-4-oxo-2–(3,4,5-trihydroxyphenyl)-4H-chromen-7-yl)oxy)heptano-ate], the IC50 [1] was 1680 ± 190 nM.
For `CCC(CC)COC(=O)[C@H](C)N[P@](=O)(OC[C@H]1O[C@@](C#N)(c2ccc3c(N)ncnn23)[C@H](O)[C@@H]1O)Oc1ccccc1` [Remdesivir], the EC50 [2] was 0.91 ± 0.39 µM, the CC50 at 4 days [10] was 49.7 ± 0.13 µM and the EC50 [3] was 0.64 ± 0.12 µM. It also gave a CC50 at 24 h [11] of over 100 µM.
With `CCOC(=O)COc1cc(O)c2c(=O)c(O)c(-c3cc(O)c(O)c(O)c3)oc2c1` [Compound 6, Ethyl 2-((3,5-dihydroxy-4-oxo-2–(3,4,5-trihydroxyphenyl)-4H-chromen-7-yl)oxy)acetate] the IC50 [1] was 950 ± 120 nM and the inhibition at 1 µM [1] was over 50%.
With `CCOC(=O)CCCCCOc1cc(O)c2c(=O)c(O)c(-c3cc(O)c(O)c(O)c3)oc2c1` [Compound 8, Ethyl 6-((3,5-dihydroxy-4-oxo-2–(3,4,5-trihydroxyphenyl)-4H-chromen-7-yl)oxy)hexane-ate] the IC50 [1] was 1730 ± 110 nM.

Reference: PMC11363738 (Journal of Enzyme Inhibition and Medicinal Chemistry, 2024)
